Patent US10710980B2, “Aminopyridine derivatives and their use as selective ALK-2 inhibitors” (priority 2016, dated 2020)

Legend:
[1] = molecular target: T1, wild-type ALK2 (aa172-499) (Homo sapiens (Human), UniProt Q04771); experiment: ADPGlo biochemical autophosphorylation assay, ALK2; conditions: 15 μm ATP, 60 min at 32° C.
ALK3 (aa198-525) = ALK3 (aa198-525) (Homo sapiens (Human), UniProt P36894); experiment: ADPGlo biochemical autophosphorylation assay, ALK3; conditions: 15 μm ATP, 60 min at 32° C.
[2] = molecular target: T1, wild-type ALK2 (aa172-499); experiment: Caliper biochemical peptide phosphorylation assay, ALK2; conditions: 15 μm ATP, 60 min at 30° C.; read-out: ALK2 EPK (IC50)
ALK1 (aa166-493) = ALK1 (aa166-493) (Homo sapiens (Human), UniProt P37023); experiment: Caliper biochemical peptide phosphorylation assay, ALK1; conditions: 15 μm ATP, 60 min at 30° C.; read-out: ALK1 EPK (IC50)
ALK5 (aa162-503) = ALK5 (aa162-503) (Homo sapiens (Human), UniProt P36897); experiment: Caliper biochemical peptide phosphorylation assay, ALK5; conditions: 15 μm ATP, 60 min at 30° C.; read-out: ALK5 EPK (IC50)
ALK6 (aa168-495) = ALK6 (aa168-495) (Homo sapiens (Human), UniProt O00238); experiment: Caliper biochemical peptide phosphorylation assay, ALK6; conditions: 15 μm ATP, 60 min at 30° C.; read-out: ALK6 EPK (IC50)
[3] = test system: BMP response element (BRE) luciferase reporter in HuH7 cells, BMP6 stimulated; experiment: BMP signaling reporter gene assay; type: cell-based; conditions: Homo sapiens, Huh-7; HuH7 BRE-luciferase, BMP6 100 ng/ml, 5 hours; read-out: MSD BMP RGA IC50

Sequence of ALK1 (aa166-493) (P37023 166-493): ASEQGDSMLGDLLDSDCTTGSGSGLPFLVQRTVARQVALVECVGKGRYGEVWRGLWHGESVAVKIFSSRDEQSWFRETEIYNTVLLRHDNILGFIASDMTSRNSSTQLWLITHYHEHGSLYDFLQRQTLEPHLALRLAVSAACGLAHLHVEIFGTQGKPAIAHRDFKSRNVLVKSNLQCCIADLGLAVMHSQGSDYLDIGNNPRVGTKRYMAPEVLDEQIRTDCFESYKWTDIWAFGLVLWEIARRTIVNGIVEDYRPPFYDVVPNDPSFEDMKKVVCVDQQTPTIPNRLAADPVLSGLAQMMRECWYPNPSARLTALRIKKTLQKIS
Sequence of ALK6 (aa168-495) (O00238 168-495): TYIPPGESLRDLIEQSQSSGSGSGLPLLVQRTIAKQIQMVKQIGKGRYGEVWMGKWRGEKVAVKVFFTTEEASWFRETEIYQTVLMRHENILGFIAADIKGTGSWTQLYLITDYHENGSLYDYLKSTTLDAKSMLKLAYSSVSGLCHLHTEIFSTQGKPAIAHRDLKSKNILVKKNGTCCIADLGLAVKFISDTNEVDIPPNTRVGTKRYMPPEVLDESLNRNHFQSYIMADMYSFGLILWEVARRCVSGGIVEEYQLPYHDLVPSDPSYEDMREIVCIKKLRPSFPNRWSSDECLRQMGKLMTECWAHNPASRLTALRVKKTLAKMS
T1 sequence (Q04771 172-499): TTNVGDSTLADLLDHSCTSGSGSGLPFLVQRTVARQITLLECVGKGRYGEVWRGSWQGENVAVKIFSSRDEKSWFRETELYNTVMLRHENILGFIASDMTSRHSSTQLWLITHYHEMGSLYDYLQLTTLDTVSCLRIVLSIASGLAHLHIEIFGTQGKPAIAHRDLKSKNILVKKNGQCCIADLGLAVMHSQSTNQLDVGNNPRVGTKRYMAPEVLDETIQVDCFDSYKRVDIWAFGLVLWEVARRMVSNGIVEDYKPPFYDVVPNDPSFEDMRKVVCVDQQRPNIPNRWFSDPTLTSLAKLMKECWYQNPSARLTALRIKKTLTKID
Sequence of ALK3 (aa198-525) (P36894 198-525): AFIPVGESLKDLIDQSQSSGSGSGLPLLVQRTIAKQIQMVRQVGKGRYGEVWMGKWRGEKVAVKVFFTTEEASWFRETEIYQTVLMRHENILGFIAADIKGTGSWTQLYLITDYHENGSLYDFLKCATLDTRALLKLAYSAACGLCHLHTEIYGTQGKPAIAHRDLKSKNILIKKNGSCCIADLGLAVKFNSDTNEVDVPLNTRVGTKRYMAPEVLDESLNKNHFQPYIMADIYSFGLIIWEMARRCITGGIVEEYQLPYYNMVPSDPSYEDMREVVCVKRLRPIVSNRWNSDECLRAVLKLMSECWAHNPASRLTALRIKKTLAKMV
Sequence of ALK5 (aa162-503) (P36897 162-503): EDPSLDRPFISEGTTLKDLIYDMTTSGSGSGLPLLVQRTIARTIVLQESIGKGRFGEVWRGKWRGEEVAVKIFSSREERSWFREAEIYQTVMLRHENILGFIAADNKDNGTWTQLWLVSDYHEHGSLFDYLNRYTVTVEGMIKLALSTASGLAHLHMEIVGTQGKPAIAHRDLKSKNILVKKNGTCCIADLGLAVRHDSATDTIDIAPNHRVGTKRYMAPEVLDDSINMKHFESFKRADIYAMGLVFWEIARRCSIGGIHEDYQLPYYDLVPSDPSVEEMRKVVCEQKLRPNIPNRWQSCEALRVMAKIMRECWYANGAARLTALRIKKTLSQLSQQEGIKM

SMILES	IC50 [1] [nM]	IC50 (ALK3 (aa198-525)) [nM]	IC50 [2] [nM]	IC50 (ALK1 (aa166-493)) [nM]	IC50 (ALK5 (aa162-503)) [nM]	IC50 (ALK6 (aa168-495)) [nM]	IC50 [3] [nM]
Nc1ncc(-c2ccc([C@@]34C[C@@H]3CN(C3COC3)C4)cc2)cc1C(=O)NC12CCC(O)(CC1)CC2 [Example 64, 2-amino-N-(4-hydroxybicyclo[2.2.2]octan-1-yl)-5-(4-((1R,5S)-3-(oxetan-3-yl)-3-azabicyclo[3.1.0]hexan-1-yl)phenyl)nicotinamide]	110	2200	63	1000	7500	3800	380
Nc1ncc(-c2ccc([C@]34C[C@H]3CN(C(CF)CF)C4)cc2)cc1C(=O)N[C@H]1CC[C@H](O)CC1 [Example 66, 2-amino-5-(4-((1S,5R)-3-(1,3-difluoropropan-2-yl)-3-azabicyclo[3.1.0]hexan-1-yl)phenyl)-N-((1r,4S)-4-hydroxycyclohexyl)nicotinamide]	15	1200	56	190	10000	6200	910
C[C@H](c1ccc(-c2cnc(N)c(C(=O)NC34CC5CC(CC(O)(C5)C3)C4)c2)cc1)N1CC2(COC2)C1 [Example 68, 5-(4-((R)-1-(2-oxa-6-azaspiro[3.3]heptan-6-yl)ethyl)phenyl)-2-amino-N-((1r,3R)-3-hydroxyadamantan-1-yl)nicotinamide]	34	8000	49	2500	10000	10000	950
Nc1ncc(-c2ccc([C@@]34C[C@@H]3CN(CC3COC3)C4)cc2)cc1C(=O)N[C@H]1CC[C@H](O)CC1 [Example 70, 2-amino-N-((1r,4R)-4-hydroxycyclohexyl)-5-(4-((1R,5S)-3-(oxetan-3-ylmethyl)-3-azabicyclo[3.1.0]hexan-1-yl)phenyl)nicotinamide]	20	2850	68	305	9400	8750	513
CC(C)N1C[C@@H]2C[C@]2(c2ccc(-c3cnc(N)c(C(=O)N[C@H]4CC[C@@H](O)CC4)c3)cc2)C1 [Example 71, 2-amino-N-((1s,4R)-4-hydroxycyclohexyl)-5-(4-((1S,5R)-3-isopropyl-3-azabicyclo[3.1.0]hexan-1-yl)phenyl)nicotinamide]	22	2900	65	490	3000	5800	86
COCCN1C[C@H]2C[C@@]2(c2ccc(-c3cnc(N)c(C(=O)N[C@H]4CC[C@H](O)CC4)c3)cc2)C1 [Example 75, 2-amino-N-((1r,4R)-4-hydroxycyclohexyl)-5-(4-((1R,5S)-3-(2-methoxyethyl)-3-azabicyclo[3.1.0]hexan-1-yl)phenyl)nicotinamide]	11	1800	140	210	4600	7700	330
C[C@@H]1CCCN1Cc1ccc(-c2cnc(N)c(C(=O)N[C@H]3CC[C@](C)(O)CC3)c2)c(Cl)c1 [Example 81, 2-amino-5-(2-chloro-4-(((R)-2-methylpyrrolidin-1-yl)methyl)phenyl)-N-((1r,4R)-4-hydroxy-4-methylcyclohexyl)nicotinamide]	150	15100	110	3000	10000	10000	1250

Further compounds by falling IC50 [1], results first:

IC50 [1] [nM]	IC50 (ALK3 (aa198-525)) [nM]	IC50 [2] [nM]	IC50 (ALK1 (aa166-493)) [nM]	IC50 (ALK5 (aa162-503)) [nM]	IC50 (ALK6 (aa168-495)) [nM]	IC50 [3] [nM]	SMILES
91	1800	57	940	6700	3500	390	Nc1ncc(-c2ccc([C@]34C[C@H]3CN(C3COC3)C4)cc2)cc1C(=O)NC12CCC(O)(CC1)CC2 [Example 63, 2-amino-N-(4-hydroxybicyclo[2.2.2]octan-1-yl)-5-(4-((1S,5R)-3-(oxetan-3-yl)-3-azabicyclo[3.1.0]hexan-1-yl)phenyl)nicotinamide]
86	6500	87	890	4100	10000	2700	CN1CCN(C(=O)c2ccc(-c3cnc(N)c(C(=O)N[C@H]4CC[C@@H](O)CC4)c3)cc2)CC1 [Example 79, 2-amino-N-((1s,4s)-4-hydroxycyclohexyl)-5-(4-(4-methylpiperazine-1-carbonyl)phenyl)nicotinamide]
82	2400	44	580	1700	10000	415	CN1CCN(CCNC(=O)c2ccc(-c3cnc(N)c(C(=O)NC4CCCCC4)c3)cc2)CC1 [Example 65, 2-amino-N-cyclohexyl-5-(4-((2-(4-methylpiperazin-1-yl)ethyl)carbamoyl)phenyl)nicotinamide]
82	9500	117	1600	10000	10000	56	C[C@]1(O)CC[C@H](NC(=O)c2cc(-c3ccc([C@@]45C[C@@H]4CN(C4CCC(F)(F)CC4)C5)cc3)cnc2N)CC1 [Example 82, 2-amino-5-(4-((1R,5S)-3-(4,4-difluorocyclohexyl)-3-azabicyclo[3.1.0]hexan-1-yl)phenyl)-N-((1r,4R)-4-hydroxy-4-methylcyclohexyl)nicotinamide]
64	13200	70	2500	10000	10000	550	C[C@@H]1CCCN1Cc1ccc(-c2cnc(N)c(C(=O)N[C@H]3CC[C@](C)(O)CC3)c2)c(F)c1F [Example 74, 2-amino-5-(2,3-difluoro-4-(((R)-2-methylpyrrolidin-1-yl)methyl)phenyl)-N-((1r,4R)-4-hydroxy-4-methylcyclohexyl)nicotinamide]
58	1800	87	680	6600	4600	58	Nc1ncc(-c2ccc([C@@]34C[C@@H]3CN(C3CCC(F)(F)CC3)C4)cc2)cc1C(=O)NC12CCC(O)(CC1)CC2 [Example 80, 2-amino-5-(4-((1R,5S)-3-(4,4-difluorocyclohexyl)-3-azabicyclo[3.1.0]hexan-1-yl)phenyl)-N-(4-hydroxybicyclo[2.2.2]octan-1-yl)nicotinamide]
41	3100	52	1100	5200	9000	1100	Nc1ncc(-c2ccc(C(=O)N3CCOCC3)cc2)cc1C(=O)NC1CCCCC1 [Example 69, 2-amino-N-cyclohexyl-5-(4-(morpholine-4-carbonyl)phenyl)nicotinamide]
37	8300	109	310	7800	10000	220	[2H][C@]1(O)CC[C@H](NC(=O)c2cc(-c3ccc([C@]45C[C@H]4CN(C(C)C)C5)cc3)cnc2N)CC1 [Example 78, 2-amino-N-((1r,4S)-4-hydroxycyclohexyl-4-d)-5-(4-((1S,5R)-3-isopropyl-3-azabicyclo[3.1.0]hexan-1-yl)phenyl)nicotinamide]
34	3200	79	370	9400	8400	2300	CC(F)(F)CN1C[C@@H]2C[C@]2(c2ccc(-c3cnc(N)c(C(=O)N[C@H]4CC[C@H](O)CC4)c3)cc2)C1 [Example 76, 2-amino-5-(4-((1S,5R)-3-(2,2-difluoropropyl)-3-azabicyclo[3.1.0]hexan-1-yl)phenyl)-N-((1r,4S)-4-hydroxycyclohexyl)nicotinamide]
28	3300	80	320	10000	8600	1300	Nc1ncc(-c2ccc([C@@]34C[C@@H]3CN(CC(F)(F)F)C4)cc2)cc1C(=O)N[C@H]1CC[C@H](O)CC1 [Example 77, 2-amino-N-((1r,4R)-4-hydroxycyclohexyl)-5-(4-((1R,5S)-3-(2,2,2-trifluoroethyl)-3-azabicyclo[3.1.0]hexan-1-yl)phenyl)nicotinamide]
22	1900	50	180	10000	8700	1160	Nc1ncc(-c2ccc([C@]34C[C@H]3CN(CC(F)(F)F)C4)cc2)cc1C(=O)N[C@H]1CC[C@H](O)CC1 [Example 67, 2-amino-N-((1r,4S)-4-hydroxycyclohexyl)-5-(4-((1S,5R)-3-(2,2,2-trifluoroethyl)-3-azabicyclo[3.1.0]hexan-1-yl)phenyl)nicotinamide]
